Assays:
corn [1] = experiment: Herbicidal effect by upland field soil treatment (Application Example 2): phytotoxicity to corn; format: in vivo; conditions: 30th day from treatment
Protocol: (§1) Test for Herbicidal Effect by Upland Field Soil Treatment
(§2) An upland field soil was filled in a plastic pot of 11 cm each of length, width and depth. Seeds of corn and velvetleaf (Abutilon theophrasti Medic) were sowed, followed by covering with the same soil. The wettable powder produced in accordance with Formulation 1 was weighed so as to provide active ingredients in a predetermined amount, and was diluted with water and sprayed uniformly on the soil surface using a small sprayer, in an amount of 100 liters per […]. Then, growing was made in a greenhouse, and the herbicidal effect of each wettable powder was examined at the 30th day from the treatment in accordance with the standard shown in Table 15.

[2] = test system: velvetleaf (Abutilon theophrasti Medic); experiment: Herbicidal effect by upland field soil treatment (Application Example 2): velvetleaf; format: in vivo; conditions: 30th day from treatment
Protocol: as §1, §2

[3] = test system: common lambsquarters (Chenopodium album L.); experiment: Herbicidal effect by upland field soil treatment (Application Example 1): common lambsquarters; format: in vivo; conditions: 30th day from treatment
Protocol: as §1
as §2, with “corn, green foxtail (Setaria viridis)” for “corn”, “common lambsquarters (Chenopodium album L.)” for “velvetleaf (Abutilon theophrasti Medic)”

[4] = test system: green foxtail (Setaria viridis); experiment: Herbicidal effect by upland field soil treatment (Application Example 1): green foxtail; format: in vivo; conditions: 30th day from treatment
Protocol: as §1
as §2, with “corn, green foxtail (Setaria viridis)” for “corn”, “common lambsquarters (Chenopodium album L.)” for “velvetleaf (Abutilon theophrasti Medic)”

corn [5] = experiment: Herbicidal effect by upland field soil treatment (Application Example 1): phytotoxicity to corn; format: in vivo; conditions: 30th day from treatment
Protocol: as §1
as §2, with “corn, green foxtail (Setaria viridis)” for “corn”, “common lambsquarters (Chenopodium album L.)” for “velvetleaf (Abutilon theophrasti Medic)”

[6] = 16 g a.i./ha, soil surface spray of wettable powder, index of Table 15
[7] = 32 g a.i./ha, upland field soil treatment

Row | Compound | Herbicidal effect Common lambsquarter (Chenopodium album L.) [3, 6] | melting point [°C] | Herbicidal effect Green foxtail (Sataria viridis) [4, 6] | Herbicidal effect Corn (corn [5]; [6]) | Herbicidal effect Common lambsquarter (Chenopodium album L.) [3, 7] | Herbicidal effect Green foxtail (Sataria viridis) [4, 7] | Herbicidal effect Corn (corn [5]; [7]) | further results
1 | CCNc1nc(Cl)nc(NC(C)C)n1 [Atrazine] | – | – | – | – | – | – | – | Corn (corn [1]; 125 g a.i./ha): 0 (Herbicidal effect or phytotoxicity of from 0 to 9%); Velvetleaf (Abutilon theophrasti Medic) ([2]; 125 g a.i./ha): 1 (Herbicidal effect or phytotoxicity of from 10 to 19%)
2 | Cn1nc(C(F)(F)F)c(CS(=O)(=O)C2=NOC(C)(C)C2)c1OC(F)F [Compound 3-188] | – | – | – | – | – | – | – | Corn (corn [1]; 16 g a.i./ha): 0 (Herbicidal effect or phytotoxicity of from 0 to 9%); Corn (corn [1]; 32 g a.i./ha): 0 (Herbicidal effect or phytotoxicity of from 0 to 9%); Velvetleaf (Abutilon theophrasti Medic) ([2]; 16 g a.i./ha): 2 (Herbicidal effect or phytotoxicity of from 20 to 29%); Velvetleaf (Abutilon theophrasti Medic) ([2]; 32 g a.i./ha): 2 (Herbicidal effect or phytotoxicity of from 20 to 29%)
3 | CCn1nc(C(F)(F)F)c(CS(=O)(=O)C2=NOC(C)(C)C2)c1OC(F)F [Compound 3-0190, 3-(5-difluoromethoxy-1-ethyl-3-trifluoromethyl-1H-pyrazol-4-ylmethanesulfonyl)-5,5-dimethyl-2-isoxazoline] | 1 (Herbicidal effect or phytotoxicity of from 10 to 19%) | 98 to 100 | 3 (Herbicidal effect or phytotoxicity of from 30 to 39%) | 0 (Herbicidal effect or phytotoxicity of from 0 to 9%) | – | – | – | –
4 | Cn1nc(C(F)(F)F)c(CS(=O)(=O)C2=NOC(C)(C)C2)c1Cl [Compound 3-0039, 3-(5-chloro-1-methyl-3-trifluoromethylpyrazol-4-ylmethanesulfonyl)-5,5-dimethyl-2-isoxazoline] | 3 (Herbicidal effect or phytotoxicity of from 30 to 39%) | 115 to 116 | 3 (Herbicidal effect or phytotoxicity of from 30 to 39%) | 0 (Herbicidal effect or phytotoxicity of from 0 to 9%) | – | – | – | –
5 | Cc1onc(C(F)(F)F)c1CS(=O)(=O)C1=NOC(C)(C)C1 [Compound 4-0001, 5,5-dimethyl-3-(5-methyl-3-trifluoromethylisoxazol-4-ylmethylsulfonyl)-2-isoxazoline] | – | 135 to 136 | – | – | 1 (Herbicidal effect or phytotoxicity of from 10 to 19%) | 2 (Herbicidal effect or phytotoxicity of from 20 to 29%) | 0 (Herbicidal effect or phytotoxicity of from 0 to 9%) | –
6 | Cn1nc(C(F)(F)F)c(CS(=O)(=O)C2=NOC(C)(C)C2)c1OC1CCCC1 [Compound 3-0015, 3-(5-cyclopentyloxy-1-methyl-3-trifluoromethyl-1H-pyrazol-4-ylmethylsulfonyl)-5,5-dimethyl-2-isoxazoline] | – | 113 to 114 | – | – | 3 (Herbicidal effect or phytotoxicity of from 30 to 39%) | 3 (Herbicidal effect or phytotoxicity of from 30 to 39%) | 0 (Herbicidal effect or phytotoxicity of from 0 to 9%) | –

Reference: patent publication US7833939B2, “Herbicide compositions” (Kumiai Chemical Industry Co., Ltd., priority 2002, dated 2010)
